Assay [1] deals with BSC-1 cells infected with vaccinia virus. It is filed as cell-based, Cercopithecus monkey. To be noted: AraC from after the 1 hr adsorption period; 13 and 24 hr post infection.
The test system of the next assay is anti-KLH-peptide 1 IgG. Kind of assay: Solid phase RIA, anti-KLH-peptide 1 IgG on BSA-peptide 1 conjugate. The class given is binding, rabbit. Here is the method:
(1979) J. Immunol. Methods 28, pp. 201-206). Carrier-peptide complexes were purified by gel filtration. […] Rabbits were boosted s.c. every two weeks with the immunogen in incomplete Freund's adjuvant. The IgG fraction of the antiserum after 5 boosts was used for immunoassays and radiolabeled using Na^125 I (NEN) and Enzymobeads (Bio-Rad) to 4×10^5 cpm/μg protein. […] Plates were incubated for 4 hours at 37° C. with [^125 I]anti-KLH-peptide 1 IgG (50,000 cpm/well) in the presence or absence of inhibitors, washed and individual wells were counted.

The next assay has as its system quiescent HFF. In words: Cell proliferation assay, [3H]methyl-thymidine incorporation. The class given is cell-based, human. Here is the method:
HFF cells were grown to confluence in 48-well cluster dishes in DMEM-10% FCS and brought to quiescence by starvation for 2 days in DMEM-0.5% FCS. Mitogens and peptides were incubated with cells at 37° C. for 18 hours prior to a 4 hour pulse with 1 μCi [^3 H]methyl-thymidine (NEN) and trichloroacetic acid precipitable radioactivity was determined.
(Dividing cells build labelled thymidine or BrdU into new DNA.)

The target of assay [2] is T1, EGF receptors on A-431 human epidermoid carcinoma cells (Homo sapiens, UniProt P00533).
T1 construct: Human epidermoid carcinoma A431 cells have in excess of 10^6 EGF receptors per cell; endogenous in cells; host or cells: A431 human epidermoid carcinoma cells
In words: [125I]EGF radioreceptor assay on A-431 cells. It is filed as binding. The protocol:
A-431 human epidermoid carcinoma cells or human foreskin fibroblasts (HFF), established from primary cultures, were grown to confluence in 24-well cluster dishes (Costar) in Dulbecco's minimal essential medium (DMEM, Gibco) containing 10% fetal calf serum (FCS, Hyclone). EGF was radio-iodinated as above to between 4×10^4 and 8×10^4 cpm/ng protein. Cells were incubated at 4° C. for 60 minutes with 1 nM [^125 I]EGF in the presence of inhibitor peptides in DMEM (pH 7.4; 20 mM Hepes) containing 0.1% BSA. Cells were washed 3× with cold buffer, lysed with 0.1N NaOH, and cell-associated radioactivity was measured (γ-counter). Nonspecific binding assessed in the presence of a 100x excess of cold EGF was less than 5% and 10% of the specific binding for A-431 and HFF cells, respectively.

The test system of assay [3] is antiserum directed against peptide III. Kind of assay: Competitive radioimmunoassay with 125I-peptide III. It is filed as binding, rabbit. The note with it: for Relative Inhibitory Activity: half-maximal inhibitory concentration relative to peptide III, standard RIA; for effectiveness as inhibitor of precipitation of 125I-peptide III: relative to peptide III. Here is the method:
Reactants were mixed in a final volume of 50 microliters of a solution containing: 20 mM sodium phosphate, at pH 7.4; 200 mM NaCl; 40 mM dithiothreitol; 0.1% (w:v) BSA; 0.1% (w:v) NaN3; ^125 I-peptide III; (10^4 cpm); antiserum at a final dilution of 1/15,000; and other additions, as specified. The reaction was initiated by the addition of antiserum and continued at 23° C. for 90 minutes. An equal volume of 10% formalin-fixed Staphalococcus A (Pansorbin, Calbiochem) was then added and incubation was continued for an additional 30 minutes at 23° C. The immunoadsorbant was removed by sedimentation through a cushion of 10% (w:v) sucrose and the amount of bound ^125 I-peptide III was determined using a gamma counter.

Assay [4] concerns the target T2, EGF receptors on A431 cells (Homo sapiens, UniProt P00533).
T2 construct: Human epidermoid carcinoma A431 cells have in excess of 10^6 EGF receptors per cell; endogenous in cells; host or cells: A431 human epidermoid carcinoma cells
In words: Binding of 125I-labeled rat TGF to A431 cells. The protocol: was synthesized using the solid-phase technique of Ohgak et al. (1983) Journal of Immunol. Meth. 57, pp. 171-184. This oligopeptide was then coupled to keyhole limpet hemocyanin in accordance with the procedure of Baron et al. (1982) Cell 28, pp. 395-404, and used to immunize rabbits (Baron et al. (1982) Cell 28, pp. 395-404) and sheep (Lerner (1982) Nature 299, pp. 592-596). Antisera were assayed against peptide by a peroxidase-linked immunoassay (Kirkegaard and Perry Laboratories, Gaithersberg, Md.) and against homogeneous rat TGF (purified according to Example II above), by immunoprecipitation (Bister et al. (1980) J. Virol. 36, pp. 617-621) and Western blotting techniques (Burnett (1981) Analyt. Biochem. 112, pp. 195-203). Binding of ^125 I-labeled rat TGF and mouse EGF (Bethesda Research Labs, Bethesda, Md.) to A431 cells grown in 96-well microtiter plates was as described in Pross et al. (1977) Proc. Natl. Acad. Sci. USA 74, pp. 3918-3921.
Human epidermoid carcinoma A431 cells have in excess of 10^6 EGF receptors per cell (Fabricant et al. (1977) Proc. Natl. Acad. Sci. USA 74, pp. 565-569). TGF competes with EGF for binding to these receptors. Binding of ^125 I-labeled rat TGF to these cells was blocked by an excess of unlabeled EGF and by antiserum to peptide. […]

Read-outs that look alike come from different tables or passages of the source. Positions of bridges follow the written chain, without caps; N, C: chain ends. Residues, ends and D or L forms follow the SMILES beside them. No end group written: not given here.

Results on 9 compounds are retold here after patent publication US5240912A, “Transforming growth factor (TGF) peptides” (priority 1991, dated 1993).

Take `Nc1ccn([C@@H]2O[C@H](CO)[C@@H](O)[C@@H]2O)c(=O)n1` [AraC, cytosine arabinoside]: the “VGF production relative to infected control cultures” value in assay [1] is recorded as “enhanced more than two-fold”.
Turning to `CC(C)[C@@H]1NC(=O)CNC(=O)[C@H](C(C)C)NC(=O)[C@H](Cc2ccc(O)cc2)NC(=O)CNC(=O)[C@H](CO)NC(=O)[C@H](Cc2c[nH]cn2)NC(=O)[C@@H](N)CSSC[C@@H](C(=O)O)NC(=O)[C@H](CCCNC(=N)N)NC1=O` [Peptide 1] (H-CHSGYVGVRC-OH; disulfide 1-10), the “inhibition of reaction of anti-KLH-peptide 1 antibodies with BSA-TGF peptide” value in the assay with anti-KLH-peptide 1 IgG is reported as “inhibited in a concentration-dependent fashion”. Further, the IC50 is more than 1e-05 M with quiescent HFF (induced by 1 nM of EGF, read-out: Inhibition of Mitogenesis IC50 (M) EGF) and more than 1e-05 M in the assay with quiescent HFF (induced by 1 nM of TGFα, read-out: Inhibition of Mitogenesis IC50 (M) TGFα). Besides, the “concentration giving partial inhibition of [125I]EGF binding” value in assay [2] was > 10^-6 M.
Consider `CC(=O)N[C@H]1CSSC[C@@H](C(N)=O)NC(=O)[C@H](CCCNC(=N)N)NC(=O)[C@H](C(C)C)NC(=O)CNC(=O)[C@H](C(C)C)NC(=O)[C@H](Cc2ccc(O)cc2)NC(=O)CNC(=O)[C@H](CO)NC(=O)[C@H](Cc2c[nH]cn2)NC1=O` [Peptide 2] (Ac-CHSGYVGVRC-NH2; disulfide 1-10), for which the “binding potency relative to EGF or TGF-α” value in assay [2] is recorded as “approximately 0.02%”.
For “Ac-Cys-His-Ser-Gly-Tyr-Val-Gly-Ala-Arg-Cys-OMe (Ac-CHSGYVGARC-OMe; disulfide 1-10 (inferred)) [Peptide 3, methyl ester of the corresponding loop of hTGF]”, the “binding potency relative to EGF or TGF-α” value in assay [2] was approximately 0.2%.
As for “CHSGYVGVRC (cysteine pairing not given here) [Peptide II]”, the “Relative Inhibitory Activity” value in assay [3] is listed as more than 1500.
Turning to “CHSGYVGVRCEHADLLA (cysteine pairing not given here) [Peptide III]”, the “Relative Inhibitory Activity” value in assay [3] was found to be 1. Further, the IC50 in assay [3] (read-out: concentration producing half-maximal inhibition of precipitation of 125I-peptide III) was 0.0007 µM.
“EGF: mouse submaxillary gland epidermal growth factor [reference compound]”: in assay [4], the “blocking of 125I-labeled rat TGF binding to A431 cells” value is “blocked”. For the same compound, in assay [3], the “highest concentration without competition in RIA” value is “greater than 1 μM” and the “Relative Inhibitory Activity” value is recorded as more than 1500. Besides, the “inhibition of reaction of anti-KLH-peptide 1 antibodies with BSA-TGF peptide” value in the assay on anti-KLH-peptide 1 IgG is “did not cause significant inhibition”.
Regarding VGVRCEHADLLA [Peptide IV], in assay [3], the “Relative Inhibitory Activity” value is on record as 3.5 and the “effectiveness as inhibitor of precipitation of 125I-peptide III” value is “only slightly less effective”.
Regarding VVSHFNKCPDSHT [Peptide I], in assay [3], the “Relative Inhibitory Activity” value is listed as more than 1500 and the “effectiveness as inhibitor of precipitation of 125I-peptide III” value is “ineffective”.
